Measured values as given in patent publication US7396837B2, “Antitumoral analogs of lamellarins” (Pharma Mar, S.A.U., priority 2002, dated 2008).

Tests used:
Format in all cases: cell-based
H-MEC-1 = assay: SRB colorimetric cell growth inhibition assay, H-MEC-1; details: Homo sapiens, HMEC-1, H-MEC-1
Text: (§1) Inhibition of Cell Growth by Colorimetric Assay.
(§2) A colorimetric type of assay, using sulforhodamine B (SRB) reaction has been adapted for a quantitative measurement of cell growth and viability (following the technique described by P. A. Skehan, et al., J. Natl. Cancer Inst. 1990, 82, 1107-1112).
(§3) This form of assay employs 96 well cell culture microplates of 9 mm diameter (T. Mosmann et al., J. of Immunological Methods 1983, 65, 55-63; G. T. Faircloth et al., J. of Tissue and Culture Methods 1988, 11, 201-205).
(§4) Most of the cell lines are obtained from American Type Culture Collection (ATCC) derived from different human cancer types.
(§5) The values for mean +/− SD of data from triplicate wells are calculated. Some parameters for cellular responses can be calculated: GI=growth inhibition, TGI=total growth inhibition (cytostatic effect) and LC=cell killing (cytotoxic effect).

[1] = as above; details: human, LC50 H-MEC-1
Text: as §1, §2, §3, §4, §5

LNCaP = assay: SRB colorimetric cell growth inhibition assay, LNCaP; details: Homo sapiens, LNCaP
In short: (§6)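 After uninterrupted treatment, cultures are fixed and stained with sulforhodamine B, and absorbance reflects cell growth and viability. Each value represents the average of triplicate wells with SD.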

K-562 = assay: SRB colorimetric cell growth inhibition assay, K-562; details: Homo sapiens
In short: as §6

LoVo = assay: SRB colorimetric cell growth inhibition assay, LoVo; details: Homo sapiens, LoVo
In short: as §6

SK-MEL-28 = assay: SRB colorimetric cell growth inhibition assay, SK-MEL-28; details: Homo sapiens
In short: as §6

IGROV-ET = assay: SRB colorimetric cell growth inhibition assay, IGROV-ET (ET-743 resistant); details: Homo sapiens
In short: as §6

HT-29 = assay: SRB colorimetric cell growth inhibition assay, HT-29; details: Homo sapiens
In short: as §6

PANC-1 = assay: SRB colorimetric cell growth inhibition assay, PANC-1; details: Homo sapiens
In short: as §6

IGROV = assay: SRB colorimetric cell growth inhibition assay, IGROV; details: Homo sapiens, IGROV
In short: as §6

DU-145 = assay: SRB colorimetric cell growth inhibition assay, DU-145; details: Homo sapiens
In short: as §6

LoVo-Dox = assay: SRB colorimetric cell growth inhibition assay, LoVo-Dox (MDR); details: Homo sapiens
In short: as §6

A-549 = assay: SRB colorimetric cell growth inhibition assay, A-549; details: Homo sapiens
In short: as §6

## COc1cc(-c2c3n(c4c(=O)oc5cc(OC(=O)[C@@H](N)C(C)C)c(OC)cc5c24)CCc2c-3cc(OC)c(OC)c2OC(=O)[C@@H](N)C(C)C)ccc1OC(=O)[C@@H](N)C(C)C [Compound 128]
H-MEC-1; GI=growth inhibition
  GI50: 1.53 µM
H-MEC-1; TGI=total growth inhibition (cytostatic effect), read-out: TGI H-MEC-1
  IC (TGI): 3.16 µM
[1]
  CC50: 6.53 µM
LNCaP; LN-caP, GI=growth inhibition, read-out: GI50 LN-caP
  GI50: 1.26 µM
LNCaP; LN-caP, TGI=total growth inhibition (cytostatic effect), read-out: TGI LN-caP
  IC (TGI): 2.69 µM
LNCaP; read-out: LC50 LN-caP, LN-caP, LC=cell killing (cytotoxic effect)
  CC50: 5.71 µM
K-562; K562, K-562, GI=growth inhibition, read-out: GI50 K-562
  GI50: 1.11 µM
K-562; K562, K-562, total growth inhibition (cytostatic effect), read-out: TGI K-562
  IC (TGI): 2.98 µM
K-562; K562, read-out: LC50 K-562, K-562, cell killing (cytotoxic effect)
  CC50: 8.01 µM
LoVo; read-out: LC50 LOVO, LOVO, cell killing (cytotoxic effect)
  CC50: 4.3 µM
LoVo; GI=growth inhibition, read-out: GI50 LOVO
  GI50: 0.854 µM
LoVo; total growth inhibition (cytostatic effect), read-out: TGI LOVO
  IC (TGI): 1.92 µM
SK-MEL-28; SK-MEL-28, MEL-28, GI=growth inhibition, read-out: GI50 MEL-28
  GI50: 1.57 µM
SK-MEL-28; SK-MEL-28, MEL-28, TGI=total growth inhibition (cytostatic effect), read-out: TGI MEL-28
  IC (TGI): 3.03 µM
SK-MEL-28; SK-MEL-28, read-out: LC50 MEL-28, MEL-28, LC=cell killing (cytotoxic effect)
  CC50: 5.86 µM
IGROV-ET; IGROV-ET, GI=growth inhibition, read-out: GI50 IGROV-ET
  GI50: 0.689 µM
IGROV-ET; IGROV-ET, TGI=total growth inhibition (cytostatic effect), read-out: TGI IGROV-ET
  IC (TGI): 2.26 µM
IGROV-ET; read-out: LC50 IGROV-ET, IGROV-ET, LC=cell killing (cytotoxic effect)
  CC50: 7.59 µM
HT-29; HT-29, HT-29, GI=growth inhibition, read-out: GI50 HT-29
  GI50: 1.95 µM
HT-29; HT-29, HT-29, total growth inhibition (cytostatic effect), read-out: TGI HT-29
  IC (TGI): 3.54 µM
HT-29; HT-29, read-out: LC50 HT-29, HT-29, cell killing (cytotoxic effect)
  CC50: 6.44 µM
PANC-1; PANC-1, PANC-1, GI=growth inhibition, read-out: GI50 PANC-1
  GI50: 0.888 µM
PANC-1; PANC-1, PANC-1, total growth inhibition (cytostatic effect), read-out: TGI PANC-1
  IC (TGI): 2.31 µM
PANC-1; PANC-1, read-out: LC50 PANC-1, PANC-1, cell killing (cytotoxic effect)
  CC50: 5.99 µM
IGROV; read-out: LC50 IGROV, IGROV, LC=cell killing (cytotoxic effect)
  CC50: 5.7 µM
IGROV; GI=growth inhibition, read-out: GI50 IGROV
  GI50: 0.639 µM
IGROV; TGI=total growth inhibition (cytostatic effect), read-out: TGI IGROV
  IC (TGI): 1.98 µM
DU-145; DU-145, DU-145, GI=growth inhibition, read-out: GI50 DU-145
  GI50: 1.33 µM
DU-145; DU-145, DU-145, TGI=total growth inhibition (cytostatic effect), read-out: TGI DU-145
  IC (TGI): 2.48 µM
DU-145; DU-145, read-out: LC50 DU-145, DU-145, LC=cell killing (cytotoxic effect)
  CC50: 4.62 µM
LoVo-Dox; LOVO-DOX, GI=growth inhibition, read-out: GI50 LOVO-DOX
  GI50: 0.403 µM
LoVo-Dox; LOVO-DOX, total growth inhibition (cytostatic effect), read-out: TGI LOVO-DOX
  IC (TGI): 1.49 µM
LoVo-Dox; read-out: LC50 LOVO-DOX, LOVO-DOX, cell killing (cytotoxic effect)
  CC50: 4.66 µM
A-549; A549, A-549, GI=growth inhibition, read-out: GI50 A-549
  GI50: 1.61 µM
A-549; A549, A-549, total growth inhibition (cytostatic effect), read-out: TGI A-549
  IC (TGI): 3.23 µM
A-549; A549, read-out: LC50 A-549, A-549, cell killing (cytotoxic effect)
  CC50: 6.45 µM
